Literature values in patent publication US20180140599A1, “PREVENTION AND/OR TREATMENT OF CONTRAST-INDUCED ACUTE KIDNEY INJURY” (Saghmos Therapeutics, Inc., priority 2016, published 2018).

Tested on: patients with high serum creatinine levels undergoing coronary angiography/angioplasty
Details: four published Phase 2 trials; compared with isotonic saline

## COc1ccc(CN2CCNCC2)c(OC)c1OC [Trimetazidine]
  reducing the risk of contrast-induced nephropathy (CIN): more effective than isotonic saline in reducing the risk of contrast-induced nephropathy (CIN)
